Measured values from patent US5698672A, “Synthetic calcitonin mimetics” (ZymoGenetics, Inc., priority 1995, dated 1997).
[ ]: non-standard residue; d: D form. Aib = CC(C)(N)C(=O)O

Assays:
[1] = target: T1, human calcitonin receptor (Homo sapiens, UniProt P30988); assay: CRE-luciferase induction in Hollex-1 cells (BHK, human calcitonin receptor); assay type: cell-based
T1 construct: expressed in transfected cells; host or cells: BHK 570 derivative KZ10-20-48 (clone Hollex-1)
T1 sequence (P30988 25-474): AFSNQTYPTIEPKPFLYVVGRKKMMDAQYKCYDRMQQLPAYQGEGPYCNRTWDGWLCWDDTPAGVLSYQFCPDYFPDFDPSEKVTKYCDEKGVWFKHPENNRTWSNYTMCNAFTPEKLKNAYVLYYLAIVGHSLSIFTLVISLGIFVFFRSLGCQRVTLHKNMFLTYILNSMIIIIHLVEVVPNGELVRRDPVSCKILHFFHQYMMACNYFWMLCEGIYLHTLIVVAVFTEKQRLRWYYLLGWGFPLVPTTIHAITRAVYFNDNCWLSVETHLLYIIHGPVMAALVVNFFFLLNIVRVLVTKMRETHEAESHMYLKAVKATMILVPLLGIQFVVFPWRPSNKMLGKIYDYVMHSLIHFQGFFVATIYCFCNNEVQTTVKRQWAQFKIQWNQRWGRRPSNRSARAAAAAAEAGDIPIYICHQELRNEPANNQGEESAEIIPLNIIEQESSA

[2] = test system: KZ10-20-48 (BHK 570 cells with CRE-luciferase reporter); assay: CRE-luciferase induction in BHK/KZ10-20-48 cells; assay type: cell-based, hamster; conditions: clone KZ10-20-48; 25 mM forskolin, 4 hours; range 15-25 fold
human glucagon receptor = human glucagon receptor (Homo sapiens, UniProt P47871); conditions: KZ10-20-48/pLJ6-4-25
human glucagon receptor, sequence (P47871 26-477): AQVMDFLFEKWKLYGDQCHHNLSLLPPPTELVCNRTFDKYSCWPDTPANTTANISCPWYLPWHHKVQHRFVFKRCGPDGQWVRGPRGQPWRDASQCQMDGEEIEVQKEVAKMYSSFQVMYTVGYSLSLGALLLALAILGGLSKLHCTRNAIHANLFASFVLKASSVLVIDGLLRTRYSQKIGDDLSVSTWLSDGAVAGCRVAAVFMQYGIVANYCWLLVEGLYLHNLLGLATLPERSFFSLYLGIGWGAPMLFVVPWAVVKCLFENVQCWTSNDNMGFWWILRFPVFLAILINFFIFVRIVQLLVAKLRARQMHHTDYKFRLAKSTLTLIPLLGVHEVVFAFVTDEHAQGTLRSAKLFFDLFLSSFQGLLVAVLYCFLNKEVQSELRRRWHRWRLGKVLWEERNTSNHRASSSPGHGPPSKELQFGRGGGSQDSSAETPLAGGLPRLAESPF
Excerpt: Test substances that appeared to specifically elevate luciferase expression in calcitonin receptor-positive cells, but not calcitonin receptor-negative cells, were subjected to an additional specificity check, i.e., their inability to activate other members of the G-protein coupled-receptor family.

[3] = test system: KZ10-20-48/Zem 228 (calcitonin receptor-negative BHK cells); assay: CRE-luciferase induction in receptor-negative KZ10-20-48/Zem 228 cells; conditions: Mesocricetus auratus, read-out: EC50, CRE-luciferase induction
[4] = target: hamster calcitonin receptor (Mesocricetus auratus, UniProt A0A3Q0D7K7); assay: CRE-luciferase induction in Boris/KZ10-3 cells (hamster calcitonin receptor)
hamster calcitonin receptor, sequence (A0A3Q0D7K7 entry or part of it): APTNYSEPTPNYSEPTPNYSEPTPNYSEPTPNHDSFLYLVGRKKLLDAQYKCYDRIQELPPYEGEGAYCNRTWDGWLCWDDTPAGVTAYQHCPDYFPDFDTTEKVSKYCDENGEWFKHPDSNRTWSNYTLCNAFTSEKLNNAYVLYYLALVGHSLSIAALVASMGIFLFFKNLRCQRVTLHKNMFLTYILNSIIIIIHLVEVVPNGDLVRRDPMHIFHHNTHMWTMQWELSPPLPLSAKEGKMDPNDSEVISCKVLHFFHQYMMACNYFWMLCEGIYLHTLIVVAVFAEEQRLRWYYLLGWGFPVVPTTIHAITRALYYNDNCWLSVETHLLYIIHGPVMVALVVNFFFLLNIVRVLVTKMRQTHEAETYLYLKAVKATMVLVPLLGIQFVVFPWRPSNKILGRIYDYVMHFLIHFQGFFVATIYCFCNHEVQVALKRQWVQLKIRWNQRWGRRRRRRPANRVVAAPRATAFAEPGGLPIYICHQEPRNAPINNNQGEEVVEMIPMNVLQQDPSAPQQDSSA

calcitonin receptor = assay: CRE-luciferase assay for calcitonin mimetics (calcitonin receptor-positive cell line, Hollex-1 or Boris/KZ10); assay type: cell-based; conditions: calcitonin receptor-positive cells; cell line not given; read-out: CRE-Luciferase Induction EC50
Excerpt: All synthetic calcitonin mimetics are subjected to an assay system that permits rapid identification of substances having selective calcitonin receptor activity on cells expressing the calcitonin receptor. Only those modifications which retain calcitonin-like activity, as assayed by the CRE-luciferase assay for example, are within the scope of this invention. The calcitonin receptor is a member of the G-protein receptor family and transduces signal via activation of adenylate cyclase, leading to elevation of cellular cAMP levels (Lin et al., Science 254:1022-24, 1991). This assay system exploits the receptor's ability to elevate cAMP levels as a way to detect other molecules, not calcitonin, that are able to stimulate the calcitonin receptor and initiate signal transduction.

[5] = test system: PTH induced bone resorption in mouse calvariae; assay: Calvarial assay: PTH induced bone resorption, calcium release; assay type: cell-based; conditions: 1 nM PTH 1-34, 72 hours, neonatal mouse calvariae; read-out: Inhibition of Ca++ Release EC50
Protocol: Calvaria from 4-day old neonatal CD-1 mice (pregnant mice received from Charles River Laboratories, Wilmington, Mass.) were trimmed with fine-tipped scissors to leave the parietal regions, including the sagittal suture. These trimmed bones were placed singly per well into 6-well cell culture cluster plates (Costar, Pleasanton, Calif.) with 1 ml/well of growth medium (DMEM (BioWhittaker, Walkersville, Md.) with 4.5 g/L glucose, 0.29 mg/ml L-glutamine, 1 mM sodium pyruvate, 15% heat-inactivated horse serum, and antibiotics (penicillin-G […], streptomycin […], and neomycin […])), and rocked gently (RedRocker™, model PR50-115V) (Hoefer, San Francisco, Calif.) at 37° C. in a 5% CO2 humidified incubator for 24 hours preincubation.
Following incubation, medium was removed and replaced with 1.5 ml/well of growth medium containing 1 nM parathyroid hormone (PTH) 1-34 (Sigma) to stimulate bone resorption. For evaluation of the ability of synthetic calcitonin mimetics to inhibit PTH induced bone resorption, mimetic compounds in DMSO were added to the growth medium at concentrations ranging from […] (final assay concentration of DMSO less than or equal to 1%). In each experiment human calcitonin (0.02-20 nM, 0.2-2 nM preferred) was added to PTH treated bones as a positive control. […]

[6] = test system: osteoclasts in mouse calvariae; assay: Calvaria histology: osteoclast number and size; assay type: cell-based; conditions: PTH induced bone resorption in mouse calvariae
Excerpt: To confirm the findings in the calvarial bone resorption assay employing calcium release from culture mouse calvariae, selected bones were fixed in 10% neutral buffered formalin and demineralized in 5% formic acid with 5% formalin. The bones were dehydrated through an ascending series of ethanol concentrations, infiltrated in glycol methacrylate, and embedded using a JB-4 embedding kit (PolySciences, Warrington, Pa.) (Liu and Kalu, J. Bone Miner. Res., 5:973-82, 1990). Cross sections of calvariae cut at […] were obtained and stained for tartrate-resistant acid phosphatase (TRAP) activity and counterstained with methyl green and thionin for cell morphology (Liu and Kalu, J. Bone. Miner. Res. 1990, supra). osteoclasts were identified by TRAP stain, multinucleation, large cell size, and irregular cell shape. The number of osteoclasts were counted from endocranial and ectocranial bone surfaces and expressed as number/mm perimeter. The size of all the osteoclasts counted was also measured using a Bone Morphometry program (Lui and Kalu, supra.; Bain et al., J. Bone Miner. Res. 8:435-42, 1993). […] This PTH-induced increase was suppressed by treatment with human calcitonin.
Calcitonin mimetic compounds were evaluated in a similar fashion for their ability to suppress PTH-induced increases in osteoclast number and size. Cell toxicity (or death) was also evaluated morphologically. […]

| Compound | EC50 [1] [nM] | induction of CRE-luciferase [2] [fold] | induction of luciferase (human glucagon receptor) [fold] | EC50 [3] [nM] | induction of luciferase [4] [fold] | EC50 (calcitonin receptor) [nM] | EC50 [5] [nM] | Histology [6] |
| --- | --- | --- | --- | --- | --- | --- | --- | --- |
| C=C[C@@]1(C)CC(=O)[C@]2(O)[C@@]3(C)[C@@H](O)CCC(C)(C)[C@@H]3[C@H](O)[C@H](OC(C)=O)[C@@]2(C)O1 [forskolin] | 1200 | 20 | 35 | 600 | 25 |  |  |  |
| Ac-W[Aib]Q[Aib]IT[Aib]L[Aib]PQ[Aib]PF-OH [Synthetic 2807] |  |  |  |  |  | 2280 | 36000 | Inhibitory |
